Experimental data reported in PubChem BioAssay AID569 (University of Pittsburgh Molecular Library Screening Center, 2006).
Activity calls are given as the source filed them. No rule for the calls is given here.

Biological target: M-phase inducer phosphatase 2 (Homo sapiens) (UniProt P30305)
Experiment: concentration-response of Cdc25B catalytic domain blockers – biochemical, fluorescence, IC50, dose response (AID 569)
Settings: recombinant Cdc25B phosphatase, fluorescence substrate

Sequence of M-phase inducer phosphatase 2 (Homo sapiens) (P30305 whole entry, looked up, the tested form may be a part): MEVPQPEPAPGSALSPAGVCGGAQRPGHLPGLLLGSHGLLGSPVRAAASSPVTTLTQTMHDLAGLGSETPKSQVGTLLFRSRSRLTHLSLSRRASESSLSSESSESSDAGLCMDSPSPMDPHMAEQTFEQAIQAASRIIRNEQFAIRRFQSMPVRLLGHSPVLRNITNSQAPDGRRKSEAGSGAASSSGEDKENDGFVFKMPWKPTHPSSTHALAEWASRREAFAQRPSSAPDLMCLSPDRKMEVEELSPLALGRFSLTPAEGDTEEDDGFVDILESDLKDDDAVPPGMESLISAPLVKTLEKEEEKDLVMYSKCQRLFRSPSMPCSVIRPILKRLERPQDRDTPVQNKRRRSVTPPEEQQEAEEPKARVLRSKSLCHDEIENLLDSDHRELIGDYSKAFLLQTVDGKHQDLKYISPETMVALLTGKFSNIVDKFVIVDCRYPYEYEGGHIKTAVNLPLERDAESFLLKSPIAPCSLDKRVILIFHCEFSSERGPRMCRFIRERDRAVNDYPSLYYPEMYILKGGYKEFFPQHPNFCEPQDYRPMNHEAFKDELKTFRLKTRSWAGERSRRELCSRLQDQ

| IC50 | SMILES |
| --- | --- |
| > 50 µM (inactive) | O=C1CC(N2CCN(CCc3ccccn3)CC2)C(=O)N1c1ccc(Cl)cc1 (stereo unspecified) |
| 9.53 µM | Oc1ccc2ccccc2c1C=NC12CN3CCN(CN(C3)C1)C2 |
| > 50 µM (inactive) | CCOc1cc(C2C(C#N)=C(N)Oc3n[nH]c(-c4ccccc4)c32)ccc1O (stereo unspecified) |
| > 50 µM (inactive) | COc1cccc(N2CCN(C3CC(=O)N(c4cccc(Cl)c4)C3=O)CC2)c1 (stereo unspecified) |
| > 50 µM (inactive) | Cc1nc2c(C)cccn2c1/C(O)=C1\C(=O)C(=O)N(CCN(C)C)C1c1ccncc1 (stereo unspecified) |
| > 50 µM (inactive) | N#CC1=C(N)N2C(=C(C#N)C13CCCCC3)SC1CCCCC12O (stereo unspecified) |
